Entries after “also recorded” stand apart in the source; their conditions may differ.
Experiments:
MBP-ANAT fusion enzyme [1] = target: T1, MBP-ANAT fusion enzyme (Homo sapiens, UniProt Q8N9F0); experiment: DTNB-based ANAT enzyme activity assay, substrate kinetics; assay type: biochemical; settings: for catalytic efficiency as alternative substrate relative to physiological substrate: alternative acetyl group acceptor vs L-aspartate; for alternative substrate activity: screen of amino acid library of 160 compounds
T1 construct: the full length ANAT enzyme has been expressed and purified in a fusion construct with MBP; made in house; host or cells: E. coli NiCo21(DE3)
T1 sequence (Q8N9F0 1-302): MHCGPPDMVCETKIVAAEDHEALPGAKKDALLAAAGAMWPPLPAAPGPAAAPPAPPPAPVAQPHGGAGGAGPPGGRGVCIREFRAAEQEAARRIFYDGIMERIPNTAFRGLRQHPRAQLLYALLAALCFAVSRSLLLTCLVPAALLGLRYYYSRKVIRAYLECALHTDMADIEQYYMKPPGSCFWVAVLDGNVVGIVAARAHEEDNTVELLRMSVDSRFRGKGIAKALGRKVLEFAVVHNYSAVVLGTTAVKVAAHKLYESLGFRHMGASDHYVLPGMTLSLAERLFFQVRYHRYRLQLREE
Method: (§1) The ANAT activity was measured by an established DTNB-based assay in which the coenzyme A product participates in a thiol exchange reaction with DTNB. This assay is illustrated in FIGS. 4A-4B. The resulting TNB^2− ion was monitored at 412 nm (c=14.15 mM^−1cm^−1) using a SpectraMax 190 spectrophotometer plate reader (Molecular Devices, CA).
(§2) The DTNB-based assay was used to measure the kinetic parameters for the physiological substrates and some alternative ANAT substrates.
The kinetic parameters for the physiological substrates of ANAT were determined using the assay described above by varying the concentrations of both substrates and fitting the data to the equation for a sequential kinetic mechanism (eq. 1). […] A screen for alternative substrates was conducted using a customized amino acid library containing a total of 160 compounds.

membrane-bound ANAT = target: T2, membrane-bound ANAT (Homo sapiens, UniProt Q8N9F0); experiment: Detergent solubilization/extraction of native ANAT from membrane fraction
T2 construct: polyhistidine tag (C); made in house; host or cells: E. coli BL21(DE3), membrane fraction
T2 sequence (Q8N9F0 1-302): T1 sequence (Q8N9F0 1-302)
Method: The human nat8l gene was cloned into the pETDEST42 plasmid using the Gateway cloning technology (Life Technologies). This plasmid was used to transform E. coli BL21(DE3) cells for protein production. The cells were grown at 37° C. to an A600 of 0.6-0.8 in Luria-Bertani (LB) medium containing 100 μg/mL ampicillin, and gene expression was then induced with 1 mM isopropyl […] (IPTG) at 28° C. for 5 hours. The cell pellet was resuspended in buffer A [50 mM HEPES, 500 mM NaCl and 10% glycerol (pH 7.4)] and lysed by sonication on ice for 8 min with 30 s pulse on and 2 min pulse off cycle. The cell lysate was centrifuged at 11,000 rpm for 30 minutes to pellet cell debris and unlysed cells. The membrane fraction was collected by high-speed centrifugation of the supernatant at 40,000 rpm for 1 h. Solubilization trials of ANAT from the membrane fraction were conducted with a variety of different detergents that include ionic, non-ionic, and zwitterionic detergents. Twenty microliter aliquots of the resuspended membrane fraction were mixed with different amounts of stock detergent solutions each prepared at 10 times their critical micelle concentration (CMC), leading to a final concentration of 1.5×CMC and […]. These solutions were incubated at room temperature for 1 h or at 4° C. overnight in a rocking platform.

MBP-ANAT fusion enzyme [2] = target: T1, MBP-ANAT fusion enzyme; experiment: Effect of detergents on ANAT activity (DTNB-based assay, saturating substrates); assay type: biochemical; settings: incubation with detergent at CMC
Method: This assay is illustrated in FIGS. 4A-4B.
(§3) The effect of detergent properties on ANAT activity was tested using a variety of different detergents, each at their critical micelle concentration (CMC) levels. All measurements were conducted at least in duplicate by using the DTNB-based assay at saturating substrates levels. The effect of an organic solvent on ANAT activity was also evaluated by varying the DMSO concentration in the assay from 0 to 50%. To test the stability of the purified MBP-ANAT-his construct, the enzyme was stored at 4° C. for several days and activity was monitored daily. To test for the optimal long term storage conditions, the enzyme activity was followed through multiple freeze-thaw cycles between −80° C. and room temperature.

[3] = target: ANAT fusion enzyme with GST (Homo sapiens, UniProt Q8N9F0); settings: L-aspartate as substrate
Method: as §1, §2

[4] = substrate: CC(=O)SCCNC(=O)CCNC(=O)[C@H](O)C(C)(C)COP(=O)(O)OP(=O)(O)OC[C@H]1O[C@@H](n2cnc3c(N)ncnc32)[C@H](O)[C@@H]1OP(=O)(O)O; experiment: purified protein, by the assay type; settings: other: acetyl-CoA as substrate, MBP-ANAT fusion, sequential mechanism fit, pH 7.4
[5] = Enzyme stability on storage at 4° C. and freeze-thaw cycles; assay type: physicochemical; settings: stored at 4° C. for several days to one week, assayed daily
Method: as §3

In the case of `NC(C(=O)O)C(N)C(=O)O` (stereo not drawn) [2,3-diaminosuccinate], the “catalytic efficiency as alternative substrate relative to physiological substrate” value (MBP-ANAT fusion enzyme [1]) is reported as “less than 10%”.

With `CCCCCCCCCCCCOCCOCCOCCOCCOCCOCCOCCOCCO` [C12E8] the “extraction efficiency of membrane-bound ANAT” value (membrane-bound ANAT; non-ionic detergents, 1.5 CMC) was “highest extraction efficiency”.

In the case of `OC[C@H]1O[C@H](O[C@H]2[C@H](O)[C@@H](O)[C@H](OCCCCCC3CCCCC3)O[C@@H]2CO)[C@H](O)[C@@H](O)[C@@H]1O` [Cymal 5], the “loss of catalytic activity” value (MBP-ANAT fusion enzyme [2]) is reported as “significant loss of activity” and the “extraction efficiency of membrane-bound ANAT” value (membrane-bound ANAT; 8.7 CMC) is reported as “effective”.

For `CCCCCCCCCCCCO[C@@H]1O[C@H](CO)[C@@H](O[C@H]2O[C@H](CO)[C@@H](O)[C@H](O)[C@H]2O)[C@H](O)[C@H]1O` [DDM], the “extraction efficiency of membrane-bound ANAT” value (membrane-bound ANAT; 8.7 CMC) was “effective”.

For `N[C@@H](CC(=O)O)C(=O)O` [L-aspartate], the Km [3] was 100 µM and the Km (MBP-ANAT fusion enzyme [1]; L-aspartate as substrate, MBP-ANAT fusion, sequential mechanism fit, pH 7.4) was 160 µM.

In the case of `N[C@@H](CCC(=O)O)C(=O)O` [L-glutamate], the “catalytic efficiency as alternative substrate relative to physiological substrate” value (MBP-ANAT fusion enzyme [1]) is reported as “less than 1%” and the “alternative substrate activity” value (MBP-ANAT fusion enzyme [1]) is reported as “profound loss of activity”.

With `CCCCCCCCCCCC[N+](C)(C)[O-]` [LDAO] the “loss of catalytic activity” value (MBP-ANAT fusion enzyme [2]) was “nearly complete loss of catalytic activity”.

In the case of `CCCCCCCCCCCCOS(=O)(=O)[O-].[Na+]` [SDS], the “loss of catalytic activity” value (MBP-ANAT fusion enzyme [2]) is reported as “nearly complete loss of catalytic activity”.

For `CCCCCCCCO[C@@H]1O[C@H](CO)[C@@H](O)[C@H](O)[C@H]1O` [octylglucoside], the “loss of catalytic activity” value (MBP-ANAT fusion enzyme [2]) was “significant loss of activity”.

With `CC(C(=O)O)[C@H](N)C(=O)O` (stereo partly drawn) [β-methylaspartate] the “alternative substrate activity” value (MBP-ANAT fusion enzyme [1]) was “best of these few alternative substrates; also recorded: profound loss of activity”.

B1: MBP-ANAT fusion enzyme (Homo sapiens) (protein)
chain: T1 sequence (Q8N9F0 1-302)
Work on B1 yielded a Km [4] of 3.1 µM.

B2: native enzyme: human aspartate N-acetyltransferase without the MBP fusion domain (protein, UniProt Q8N9F0 1-302, looked up)
N-acetylaspartate synthetase: T1 sequence (Q8N9F0 1-302)
For B2, the “loss of activity on storage” value [5] was “substantial loss of catalytic activity”.
